Results on 14 compounds are retold here after patent publication US8933015B2, “Macrocyclic inhibitors of flaviviridae viruses” (Gilead Sciences, Inc., priority 2010, dated 2015).

Experiment [1] concerns human hepatoma Huh-7 cell line harboring a HCV replicon. As to the kind of experiment: HCV replicon assay (inhibition of viral replication, luciferase). The class given is cell-based. Conditions: Hepatitis C virus; for EC50: Huh-7, 72 h; for inhibition at 1 µM: Huh-7, read-out: % inhibition at 1 μM. The procedure: The anti-HCV activity of the compounds of this invention was tested in a human hepatoma Huh-7 cell line harboring a HCV replicon. The assay comprised the following steps:
Step 1: Compound Preparation and Serial Dilution
Serial dilution was performed in 100% DMSO in a 384-well plate. A solution containing a compound at 225-fold concentration of the starting final serial dilution concentration was prepared in 100% DMSO and 15 uL added to the pre-specified wells in column 3 or 13 of a polypropylene 384-well plate. The rest of the 384-well plate was filled with 10 uL 100% DMSO except for columns 23 and 24, where 10 uL of 500 uM a HCV protease inhibitor (ITMN-191) in 100% DMSO was added. […] The plate was then placed on a Biomek FX Workstation to start the serial dilution. The serial dilution was performed for ten cycles of 3-fold dilution from column 3 to 12 or from column 13 to 22.
Step 2: Cell Culture Plate Preparation and Compound Addition
To each well of a black polypropylene 384-well plate, 90 μL of cell media containing 1600 suspended Huh-7 HCV replicon cells was added with a Biotek uFlow Workstation. A volume of 0.4 μL of the compound solution was transferred from the serial dilution plate to the cell culture plate on a Biomek FX Workstation. The DMSO concentration in the final assay condition was 0.44%. The plates were incubated for 3 days at 37° C. with 5% CO2 and 85% humidity.
Step 3: Detection of Cytotoxicity and Inhibition of Viral Replication
b) Assessment of inhibition of viral replication: The calcein-PBS solution in the 384-well cell culture plate was aspirated with a Biotek EL405 plate-washer. A volume of 20 μL of Dual-Glo luciferase buffer (Promega, Dual-Glo Luciferase Assay Reagent, cat. #E298B) was added to each well of the plate with a Biotek uFlow Workstation. The plate was incubated for 10 minutes at room temperature. A volume of 20 μL of a solution containing 1:100 mixture of Dual-Glo Stop & Glo substrate (Promega, Dual-Glo Luciferase Assay Reagent, cat. #E313B) and Dual-Glo Stop & Glo buffer (Promega, Dual-Glo Luciferase Assay Reagent, cat. #E314B) was then added to each well of the plate with a Biotek uFlow Workstation. The plate was incubated at room temperature for 10 minutes before the luminescence signal was measured with a Perkin Elmer Envision Plate Reader.
The percent cytotoxicity was determined by calcein AM conversion to fluorescent product. The average fluorescent signal from the DMSO control wells were defined as 100% nontoxic. The individual fluorescent signal from testing compound treated well was divided by the average signal from DMSO control wells and then multiplied by 100% to get the percent viability. The percent anti-HCV replication activity was determined by the luminescence signal from the testing well compared to DMSO controls wells. The background signal was determined by the average luminescence signal from the HCV protease inhibitor treated wells and was subtracted from the signal from the testing wells as well as the DMSO control wells.
Where b is Hill's coefficient. See, for reference, Hill, A. V., The Possible Effects of the Aggregation of the Molecules of Hemoglobin on its Dissociation Curves, J. Physiol. 40: iv-vii. (1910).
% inhibition values at a specific concentration, for example 2 μM, can also be derived from the formula above.
The EC50's are presented as a % inhibition.
(A replicon is a self-replicating genome or part of one, used to study replication in cells.)

Experiment [2] has as its target cyclophilin A (Homo sapiens, UniProt P62937). As to the kind of experiment: Cyclophilin A TR-FRET competitive binding assay. Conditions: inhibition of cyclophilin binding; 5 nM CypA, 150 nM CsA-Cy5. The method, then: Cyclophilin A TR-FRET Competitive Binding Assay
Inhibitor potency was measured using a competitive binding assay with a time-resolved fluorescence resonance energy transfer (TR-FRET) readout. […] The total volume of the assay solution was 100 μL. […] An IC50 value was calculated using a four-parameter logistic fit.
(Time-resolved FRET reads energy transfer from a long-lived donor to a nearby acceptor.)

A word on the EC50: it is the concentration giving half of the maximal effect. Read a high EC50 as weaker potency. What is called inhibition is the relative decrease from the control value, in per cent. A word on the IC50: it is the concentration at which inhibition is half-maximal. The low end stands for greater potency in that assay, the high end for weaker potency in that assay.

cyclophilin A, sequence (P62937 whole entry, species assumed): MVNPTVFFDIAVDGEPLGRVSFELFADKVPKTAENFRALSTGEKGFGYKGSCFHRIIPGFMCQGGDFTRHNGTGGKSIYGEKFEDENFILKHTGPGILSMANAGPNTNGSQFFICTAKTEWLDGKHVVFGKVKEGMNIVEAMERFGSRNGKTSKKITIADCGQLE

Take `CO[C@@H]1[C@@H](C)[C@@H](OC)/C=C/C=C/CCOC(=O)[C@@H]2CCCN(N2)C(=O)[C@H](Cc2cccc(O)c2)NC(=O)[C@H](C(C)C)NC(=O)[C@@H]1C` [Compound 3, (13E,15E)-(3S,6S,9R,10R,11S,12S,21S)-3-(3-Hydroxy-benzyl)-6-isopropyl-10,12-dimethoxy-9,11-dimethyl-19-oxa-1,4,7,25-tetraaza-bicyclo[19.3.1]pentacosa-13,15-diene-2,5,8,20-tetraone]: in experiment [1], the concentration for a half-maximal effect (EC50) was < 1 µM and the inhibition at 1 µM amounted to 59%.
Consider `CO[C@@H]1[C@@H](C)[C@@H](OC)/C=C/C=C/CCNC(=O)[C@@H]2CCCN(N2)C(=O)[C@H](Cc2cccc(O)c2)NC(=O)[C@H](C(C)C)NC(=O)[C@@H]1C` [Compound 4, (13E,15E)-(3S,6S,9R,10R,11S,12S,21S)-3-(3-Hydroxy-benzyl)-6-isopropyl-10,12-dimethoxy-9,11-dimethyl-1,4,7,19,25-pentaaza-bicyclo[19.3.1]pentacosa-13,15-diene-2,5,8,20-tetraone], for which, in experiment [1], the EC50 is 1.1 to 10 µM and the inhibition at 1 µM is 10%. Besides, in experiment [2], the 50% inhibitory concentration (IC50) is < 0.1 µM.
For `CO[C@@H]1[C@@H](C)[C@@H](OC)/C=C/c2cccc(c2)COC(=O)[C@@H]2CCCN(N2)C(=O)[C@H](Cc2cccc(O)c2)NC(=O)[C@H](C(C)C)NC(=O)[C@@H]1C` [Compound 5, (E)-(5S,11S,14S,17R,18R,19S,20S)-11-(3-Hydroxy-benzyl)-14-isopropyl-18,20-dimethoxy-17,19-dimethyl-3-oxa-9,12,15,28-tetraaza-tricyclo[21.3.1.1*5,9*]octacosa-1(27),21,23,25-tetraene-4,10,13,16-tetraone], in that order: < 1 µM, 67% and < 0.1 µM.
For `CC(C)[C@@H]1NC(=O)[C@H](C)[C@H](O)c2ccc(cc2)/C=C/CCOC(=O)[C@@H]2CCCN(N2)C(=O)[C@H](Cc2cccc(O)c2)NC1=O` [Compound 8, (E)-(8S,14S,17S,20R,21S)-21-Hydroxy-14-(3-hydroxy-benzyl)-17-isopropyl-20-methyl-6-oxa-12,15,18,27-tetraaza-tricyclo[20.2.2.1*8,12*]heptacosa-1(25),2,22(26),23-tetraene-7,13,16,19-tetraone], the inhibition at 1 µM in experiment [1] came to 13%. The same compound displayed a half-maximal inhibitory concentration (IC50) in experiment [2] of 0.101 to 1 µM.
For the compound `CC(C)[C@@H]1NC(=O)[C@H](C)[C@H](O)c2ccc(cc2)CCCCOC(=O)[C@@H]2CCCN(N2)C(=O)[C@H](Cc2cccc(O)c2)NC1=O` [Compound 9, (8S,14S,17S,20R,21S)-21-Hydroxy-14-(3-hydroxy-benzyl)-17-isopropyl-20-methyl-6-oxa-12,15,18,27-tetraaza-tricyclo[20.2.2.1*8,12*]heptacosa-1(25),22(26),23-triene-7,13,16,19-tetraone], in experiment [1], the EC50 was in the range of 10.1 to 100 µM and the inhibition at 1 µM was 4%. In experiment [2], this compound registered an IC50 of 1 to 10 µM.
Regarding `CO[C@@H]1CC/C=C/c2cccc(c2)COC(=O)[C@@H]2CCCN(N2)C(=O)[C@H](Cc2cccc(O)c2)NC(=O)[C@H](C(C)C)NC(=O)[C@@H]1C` [Compound 10, (E)-(5S,11S,14S,17R,18R)-11-(3-Hydroxy-benzyl)-14-isopropyl-18-methoxy-17-methyl-3-oxa-9,12,15,28-tetraaza-tricyclo[21.3.1.1*5,9*]octacosa-1(27),21,23,25-tetraene-4,10,13,16-tetraone], the inhibition at 1 µM in experiment [1] was 59%.
`CO[C@@H]1CC/C=C/C=C/CCOC(=O)[C@@H]2CCCN(N2)C(=O)[C@H](Cc2cccc(O)c2)NC(=O)[C@H](C(C)C)NC(=O)[C@@H]1C` [Compound 11, (13E,15E)-(3S,6S,9R,10R,21S)-3-(3-Hydroxy-benzyl)-6-isopropyl-10-methoxy-9-methyl-19-oxa-1,4,7,25-tetraaza-bicyclo[19.3.1]pentacosa-13,15-diene-2,5,8,20-tetraone]: in experiment [1], the EC50 was < 1 µM and the inhibition at 1 µM is 67%.
For `CO[C@@H]1[C@@H](C)[C@@H](OC)/C=C/C=C/C[C@@H](C)OC(=O)[C@@H]2CCCN(N2)C(=O)[C@H](Cc2cccc(O)c2)NC(=O)[C@H](C(C)C)NC(=O)[C@@H]1C` [Compound 12, (13E,15E)-(3S,6S,9R,10R,11S,12S,18R,21S)-3-(3-Hydroxy-benzyl)-6-isopropyl-10,12-dimethoxy-9,11,18-trimethyl-19-oxa-1,4,7,25-tetraaza-bicyclo[19.3.1]pentacosa-13,15-diene-2,5,8,20-tetraone], in experiment [1], the EC50 was < 1 µM and the inhibition at 1 µM came out at 82%. Further, the IC50 in experiment [2] was < 0.1 µM.
Take `CO[C@@H]1CC/C=C/c2cccc(c2)[C@@H](C)OC(=O)[C@@H]2CCCN(N2)C(=O)[C@H](Cc2cccc(O)c2)NC(=O)[C@H](C(C)C)NC(=O)[C@@H]1C` [Compound 13, (E)-(2R,5S,11S,14S,17R,18R)-11-(3-Hydroxy-benzyl)-14-isopropyl-18-methoxy-2,17-dimethyl-3-oxa-9,12,15,28-tetraaza-tricyclo[21.3.1.1*5,9*]octacosa-1(26),21,23(27),24-tetraene-4,10,13,16-tetraone]: in experiment [1], the EC50 is < 1 µM and the inhibition at 1 µM was 93%.
For `CO[C@@H]1CC/C=C/c2cccc(c2)[C@@H](C)NC(=O)[C@@H]2CCCN(N2)C(=O)[C@H](Cc2cccc(O)c2)NC(=O)[C@H](C(C)C)NC(=O)[C@@H]1C` [Compound 16, (E)-(2R,5S,11S,14S,17R,18R)-11-(3-Hydroxy-benzyl)-14-isopropyl-18-methoxy-2,17-dimethyl-3,9,12,15,28-pentaaza-tricyclo[21.3.1.1*5,9*]octacosa-1(27),21,23,25-tetraene-4,10,13,16-tetraone], in experiment [1], the EC50 is < 1 µM and the inhibition at 1 µM is 75%. In addition, the IC50 in experiment [2] was < 0.1 µM.
In the case of `CO[C@@H]1CC/C=C/c2ccnc(c2)COC(=O)[C@@H]2CCCN(N2)C(=O)[C@H](Cc2cccc(O)c2)NC(=O)[C@H](C(C)C)NC(=O)[C@@H]1C` [Compound 17, (E)-(1S,14R,15R,18S,21S)-21-(3-Hydroxy-benzyl)-18-isopropyl-14-methoxy-15-methyl-3-oxa-6,17,20,23,27-pentaaza-tricyclo[21.3.1.1*5,9*]octacosa-5,7,9(28),10-tetraene-2,16,19,22-tetraone], in experiment [1], the EC50 was < 1 µM and the inhibition at 1 µM worked out at 56%. For the same compound, the half-inhibitory concentration (IC50) in experiment [2] was < 0.1 µM.
For `CO[C@@H]1CC/C=C/c2cc(ccn2)COC(=O)[C@@H]2CCCN(N2)C(=O)[C@H](Cc2cccc(O)c2)NC(=O)[C@H](C(C)C)NC(=O)[C@@H]1C` [Compound 18, (E)-(1S,14R,15R,18S,21S)-21-(3-Hydroxy-benzyl)-18-isopropyl-14-methoxy-15-methyl-3-oxa-8,17,20,23,27-pentaaza-tricyclo[21.3.1.1*5,9*]octacosa-,7,9(28),10-tetraene-2,16,19,22-tetraone], in experiment [1], the EC50 is < 1 µM and the inhibition at 1 µM amounted to 54%. The concentration for half-maximal inhibition (IC50) in experiment [2] is < 0.1 µM.
Take `CO[C@@H]1CC/C=C/c2ccc3c(c2)[C@@H](CC3)OC(=O)[C@@H]2CCCN(N2)C(=O)[C@H](Cc2cccc(O)c2)NC(=O)[C@H](C(C)C)NC(=O)[C@@H]1C` [Compound 19]: in experiment [1], the EC50 was < 1 µM and the inhibition at 1 µM is 70%. In addition, in experiment [2], the IC50 is < 0.1 µM.
As for `CO[C@@H]1CCCCc2cccc(c2)[C@@H](C)OC(=O)[C@@H]2CCCN(N2)C(=O)[C@H](Cc2cccc(O)c2)NC(=O)[C@H](C(C)C)NC(=O)[C@@H]1C` [Compound 20, (2R,5S,11S,14S,17R,18R)-11-(3-Hydroxy-benzyl)-14-isopropyl-18-methoxy-2,17-dimethyl-3-oxa-9,12,15,28-tetraaza-tricyclo[21.3.1.1*5,9*]octacosa-1(27),23,25-triene-4,10,13,16-tetraone], in experiment [1], the EC50 was < 1 µM and the inhibition at 1 µM was 92%. In addition, in experiment [2], the 50% inhibitory concentration (IC50) was < 0.1 µM.
